Measured values reported in patent US20090054403A1, “Treatment of Post-Traumatic Stress Disorder” (priority 2007, published 2009).
“Also recorded” adds a separate entry of the source.

Assays:
plasma NE, DA and EPI = assay: Plasma catecholamines in beagle dogs, 2 mg/kg b.i.d. for 14.5 days; assay type: in vivo
Protocol: A separate study was conducted in dogs to determine the effects of chronic administration of 2a on the plasma DA/NE ratio. Animals were randomized to receive, orally, either placebo (empty capsule) or 2a (2 mg/kg, b.i.d) for 14.5 days. Daily blood samples were drawn, 6 h after the first dose, for the measurement of plasma concentrations of DA and NE. The samples were collected in tubes containing heparin and glutathione, centrifuged at […] and stored at −70° C. until analysis.
Male Beagle dogs (Marshall farms, North Rose, N.Y.) weighing between 9-16 kg were used in the study. The animals were allowed water ad libitum and given food once daily at ˜10.00 AM. Animals were randomly assigned to one of the following treatment groups (n=8/group): placebo (empty capsule), or nepicastat at 2 mg/kg b.i.d (4 mg/kg/day). Each animal received 2 doses daily, morning and afternoon (8-10 hours apart). Daily blood samples (10 ml) were drawn 6 h after the AM dose for measurement of plasma levels of nepicastat and catecholamines. The blood was collected in tubes containing heparin and glutathione and centrifuged at −4° C. within 1 h of collection. The plasma was separated and divided into two samples, one for the measurement of plasma catecholamines and the other for analysis of nepicastat.
Plasma NE, DA and EPI were anaylysed by HPLC using electrochemical detection. Plasma concentration of nepicastat was determined by HPLC using electrochemical detection.
The BQL (below quantitation limit) in the DA concentration of dog 1 at day 10 was set to 0; ln (0) was set to missing. The analysis was performed using a mixed model (using PROC MIXED) with the day and treatment categorical variables being fixed and the dog within treatment being a random factor. For the fixed effects, the interaction between the day and the treatment was included, since the difference between the drug and placebo groups varies from day to day. Contrasts were calculated using the CONTRAST statement, which correctly takes into account the error terms for each particular contrast. In particular, the contrasts comparing the […] uses the dog mean square for its error term, while the comparisons used to establish steady state are all within dog comparisons, and require the error mean square.
The time period of steady state was calculated using the Helmert transformation (cf. SAS PROC GLM manual). These transformations compare each treatment mean with the average of the treatment means of the time points following. The steady state period is defined to start at the first time point following the maximum time at which the Helmert contrast is statistically significant. However, since this method can fail to detect a smoothly changing process, as appears might be the case here, the slope of the analyte concentration during the steady state period also was calculated. The slope during the steady state period was calculated for each dog individually, yielding one slope per animal. Univariate statistics on the slopes were then calculated, with Normal theory confidence intervals built on the mean slope, and the hypothesis of slope equalling zero was tested, and its Normal theory p-value was calculated. This slope analysis was used as the basis for determining whether the steady state period was a period of changing concentration.

[1] = test system: mean arterial pressure and heart rate; assay: Heart rate and mean arterial pressure in restrained SHR with SCH-23390 pretreatment; assay type: in vivo, spontaneous hypertensive rats
Source text: Male, spontaneous hypertensive rats (280-345 g; Charles River Labs, Kingston, N.Y.) were fasted overnight then anesthetized with ether. A femoral artery and femoral vein were cannulated with PE50 tubing for recording of blood pressure and administration of compounds, respectively. Animals were then placed in MAYO restrainers and their feet loosely taped to the restrainer. Heparinized saline (50 units sodium heparin/ml) was used to maintain patency of each cannula throughout the experiment. The following parameters were continuously recorded using Modular Instruments MI^2 BioReport™ software installed on an IBM personal computer: mean arterial pressure (MAP), heart rate (HR), and the change from baseline for each parameter at specified time points in the experiment.
All compounds were dissolved on the day of use. nepicastat was dissolved in deionized water (vehicle) to a free base concentration of 1 mg/ml. Oral dosing volume for nepicastat or vehicle was 10 ml/kg. SCH-23390 was dissolved in saline (vehicle) to a free base concentration of 0.2 mg/ml. […] or saline were administered intravenously as a bolus in a volume of 1.0 ml/kg followed by 0.2 ml flush of isotonic saline.
Following surgical preparation, each animal was allowed a minimum one hour recovery period. Animals were randomly assigned to four treatment groups: vehicle (iv)/vehicle (po); vehicle (iv)/nepicastat (po); SCH-23390 (iv)/vehicle (po); or SCH-23390 (iv)/nepicastat (po). Once animals were stabilized (minimum one hour), baseline blood pressure and heart rate was determined by taking an average of each parameter over a 15 min period of time. Once baseline blood pressure and heart rate were established, animals were dosed intravenously with either SCH-23390 (200 μg/kg) or vehicle (saline, 1 ml/kg). Fifteen minutes later, animals were orally dosed with either nepicastat (10 mg/kg) or vehicle (deionized water, 10 ml/kg).
Recorded parameters were measured 15 min prior to intravenous dosing to establish baseline blood pressure and heart rate. Recorded parameters were then measured at 5, 10, and 15 min following intravenous administration of SCH-23390 or vehicle. Following oral administration of nepicastat or vehicle, recorded parameters were measured at 15, 30, 60, 90, 120, 150, 180, 210, and 240 min.
At the end of the experiment, each animal was anesthetized with halothane and euthanized via decapitation. The cortex, left ventricle (apex), and mesenteric artery were dissected out, weighed, and fixed in 0.4 M perchloric acid. […] Blood pressure and heart rate were analyzed separately. The change from baseline for blood pressure and heart rate were analyzed by an analysis of variance (ANOVA) with effects for treatment, time, and their interaction. […]

Cl.NCc1c[nH]c(=S)n1[C@H]1CCc2c(F)cc(F)cc2C1 [nepicastat, (S)-5-Aminomethyl-1-(5,7-difluoro-1,2,3,4-tetrahydronaphth-2-yl)-2,3-dihydro-2-thioxo-1H-imidazole hydrochloride]
day of peak decrease in plasma EPI (plasma NE, DA and EPI; 2 mg/kg b.i.d.): 8 days
day of peak decrease in plasma NE (plasma NE, DA and EPI; 2 mg/kg b.i.d.): 6 days
day of peak increase in plasma DA (plasma NE, DA and EPI; 2 mg/kg b.i.d.): 7 days
day of peak increase in plasma DA/NE ratio (plasma NE, DA and EPI; 2 mg/kg b.i.d.): 6 days
decrease in plasma EPI vs placebo (plasma NE, DA and EPI; 2 mg/kg b.i.d.): 1.91 fold
decrease in plasma NE vs placebo (plasma NE, DA and EPI; 2 mg/kg b.i.d.): 2.1 fold
increase in plasma DA vs placebo (plasma NE, DA and EPI; 2 mg/kg b.i.d.): 7.5 fold
increase in plasma DA/NE ratio vs placebo (plasma NE, DA and EPI; 2 mg/kg b.i.d.): 13.6 fold
time to steady-state of effect on plasma DA (plasma NE, DA and EPI; 2 mg/kg b.i.d.): ~8 days post-dose
time to steady-state of effect on plasma EPI (plasma NE, DA and EPI; 2 mg/kg b.i.d.): ~6 days post-dose
time to steady-state of effect on plasma NE (plasma NE, DA and EPI; 2 mg/kg b.i.d.): approximately 4 days post-dose
peak reduction in plasma concentration of noradrenaline (plasma NE, DA and EPI; 2 mg/kg b.i.d. po, day-6 of dosing): 52%
peak increase in plasma concentration of dopamine (plasma NE, DA and EPI; 2 mg/kg b.i.d. po, day-7 of dosing): 646%
time to peak effect on plasma DA/NE ratio (plasma NE, DA and EPI; 2 mg/kg b.i.d., 14.5 day treatment): 6 to 7 days
mean arterial pressure vs vehicle ([1]; 10 mg/kg oral): significant decrease (p<0.05) in mean arterial pressure by 30 min post dose
heart rate vs vehicle ([1]; SCH-23390 200 μg/kg iv, nepicastat 10 mg/kg po): did not decrease the heart rate as much as observed in vehicle treated animals
antihypertensive effects of nepicastat after pretreatment with SCH-23390 ([1]; nepicastat 10 mg/kg po, SCH-23390 iv, hydrochloride): not attenuated; also recorded: did not significantly attenuate
